Molecules are shown by their SMILES.

For one experiment, the target named is T1, human CYP11B1 (Homo sapiens, UniProt P15538).
T1 construct: expressed in transfected cells
T1 sequence (P15538 25-503): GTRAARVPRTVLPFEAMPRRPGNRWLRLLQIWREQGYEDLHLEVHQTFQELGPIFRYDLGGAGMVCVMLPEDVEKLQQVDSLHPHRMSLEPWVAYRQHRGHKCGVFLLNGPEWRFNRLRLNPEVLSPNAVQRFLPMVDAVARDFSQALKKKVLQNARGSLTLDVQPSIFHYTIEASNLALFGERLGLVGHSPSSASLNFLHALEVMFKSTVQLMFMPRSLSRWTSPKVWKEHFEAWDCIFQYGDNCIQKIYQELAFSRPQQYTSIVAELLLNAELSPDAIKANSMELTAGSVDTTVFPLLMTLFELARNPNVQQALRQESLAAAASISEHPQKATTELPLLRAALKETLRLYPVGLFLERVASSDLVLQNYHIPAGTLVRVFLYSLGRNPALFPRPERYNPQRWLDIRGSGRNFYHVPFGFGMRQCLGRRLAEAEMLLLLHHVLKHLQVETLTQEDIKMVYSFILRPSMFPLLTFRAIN
The experiment is described as follows: Inhibition of hCYP11B1 in transfected V79 cells. Type of experiment: cell-based. The following applies: hamster V79 cells expressing human CYP11B1; substrate 11-deoxycortisol 200 nM. The method in brief:
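V79 hamster cells stably expressing human CYP11B1 and rat NADPH-P450 reductase were preincubated with compounds for 2 h. 11-Deoxycortisol (200 nM) was then added as substrate for 30 min before ethyl acetate quench. Substrate and product were quantified by LC-MS/MS or HPLC at 260 nm, and IC50 was derived from percent inhibition.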

The target of the next experiment is T2, human CYP11B2 (Homo sapiens, UniProt P19099).
T2 construct: expressed in transfected cells
T2 sequence (P19099 25-503): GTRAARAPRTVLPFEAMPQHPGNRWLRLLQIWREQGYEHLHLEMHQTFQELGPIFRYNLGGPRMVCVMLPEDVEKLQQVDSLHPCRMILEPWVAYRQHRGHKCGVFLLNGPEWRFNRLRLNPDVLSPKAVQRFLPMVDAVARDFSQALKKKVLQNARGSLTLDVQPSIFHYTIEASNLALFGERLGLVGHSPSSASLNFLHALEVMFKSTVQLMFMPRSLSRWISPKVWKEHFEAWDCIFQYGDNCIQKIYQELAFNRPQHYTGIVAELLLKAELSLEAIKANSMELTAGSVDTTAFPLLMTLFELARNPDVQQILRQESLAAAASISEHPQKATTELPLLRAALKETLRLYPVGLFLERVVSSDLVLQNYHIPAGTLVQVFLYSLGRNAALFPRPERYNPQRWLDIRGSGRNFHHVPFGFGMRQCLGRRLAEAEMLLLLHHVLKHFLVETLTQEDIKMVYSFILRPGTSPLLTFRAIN
The experiment is described as follows: Inhibition of hCYP11B2 in transfected V79 cells. The class given is cell-based. The conditions noted are these: hamster V79 cells expressing human CYP11B2; substrate 11-deoxycorticosterone 200 nM. The method in brief:
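Hamster V79 cells stably co-expressing human CYP11B2 and rat NADPH-P450 reductase were pre-incubated with compounds for 2 hours, then given 200 nM 11-deoxycorticosterone for 30 minutes before ethyl acetate quench. Substrate and product were quantified by LC-MS/MS or HPLC at 260 nm, and IC50 was derived from percent inhibition.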

For orientation: IC50 means the concentration at which inhibition is half-maximal. Low readings indicate higher potency, high ones lower potency. For `N#Cc1ccc(S(=O)(=O)N2CCSc3c(-c4ccc5c(c4)CC(=O)N5)cncc32)cc1` [S51, 4-((8-(2-Oxoindolin-5-yl)-2,3-dihydro-4H-pyrido[4,3-b][1,4]thiazin-4-yl)sulfonyl)benzonitrile], the IC50 on human CYP11B1 turned out to be 1.97 µM; on human CYP11B2, 0.0103 µM.
For `CN1C(=O)CCc2cc(-c3cncc4c3SCCN4S(=O)(=O)c3ccc(C#N)cc3)cc(F)c21` [S52, 4-((8-(8-Fluoro-1-methyl-2-oxo-1,2,3,4-tetrahydroquinolin-6-yl)-2,3-dihydro-4H-pyrido[4,3-b][1,4]thiazin-4-yl)sulfonyl)benzonitrile], in that order: 0.697 µM and 0.032 µM.
On the same counts, the results for `COc1ccc(S(=O)(=O)N2CCSc3c(-c4cc5cc(Cl)ccc5o4)cncc32)cn1` [S53, 8-(5-Chlorobenzofuran-2-yl)-4-((6-methoxypyridin-3-yl)sulfonyl)-3,4-dihydro-2H-pyrido[4,3-b][1,4]thiazine] are 0.072 µM and 0.0009 µM.
On the same counts, the results for `O=S(=O)(c1ccc(O)nc1)N1CCSc2c(-c3cc4cc(Cl)ccc4o3)cncc21` [S54, 5-((8-(5-Chlorobenzofuran-2-yl)-2,3-dihydro-4H-pyrido[4,3-b][1,4]thiazin-4-yl)sulfonyl) pyridin-2-ol] are 0.549 µM and 0.016 µM.
As to `Cn1cc(S(=O)(=O)N2CCSc3c(-c4cc5cc(Cl)ccc5o4)cncc32)cn1` [S55, 8-(5-Chlorobenzofuran-2-yl)-4-((1-methyl-1H-pyrazol-4-yl)sulfonyl)-3,4-dihydro-2H-pyrido[4,3-b][1,4]thiazine], the figures for the IC50 against human CYP11B1 and against human CYP11B2 were 0.0106 µM and 0.0002 µM, respectively.
For `Cn1ccc(S(=O)(=O)N2CCSc3c(-c4cc5cc(Cl)ccc5o4)cncc32)n1` [S56, 8-(5-Chlorobenzofuran-2-yl)-4-((1-methyl-1H-pyrazol-3-yl)sulfonyl)-3,4-dihydro-2H-pyrido[4,3-b][1,4]thiazine], in that order: 0.041 µM and 0.0005 µM.
For `CC(=O)Nc1nc(C)c(S(=O)(=O)N2CCSc3c(-c4cc5cc(Cl)ccc5o4)cncc32)s1` [S57, N-(5-((8-(5-Chlorobenzofuran-2-yl)-2,3-dihydro-4H-pyrido[4,3-b][1,4]thiazin-4-yl)sulfonyl)-4-methylthiazol-2-yl)acetamide], in that order: 0.066 µM and 0.0039 µM.
Consider `CC(=O)N1CCc2cc(S(=O)(=O)N3CCSc4c(-c5cc6cc(Cl)ccc6o5)cncc43)ccc21` [S58, 1-(5-((8-(5-Chlorobenzofuran-2-yl)-2,3-dihydro-4H-pyrido[4,3-b][1,4]thiazin-4-yl)sulfonyl)indolin-1-yl)ethan-1-one], for which the half-maximal inhibitory concentration (IC50) worked out at 0.027 µM against human CYP11B1 and 0.002 µM against human CYP11B2.
For `O=C1COc2ccc(S(=O)(=O)N3CCSc4c(-c5cc6cc(Cl)ccc6o5)cncc43)cc2N1` [S59, 6-((8-(5-Chlorobenzofuran-2-yl)-2,3-dihydro-4H-pyrido[4,3-b][1,4]thiazin-4-yl)sulfonyl)-2H-benzo[b][1,4]oxazin-3 (4H)-one], in that order: 0.048 µM and 0.0005 µM.
For `O=S(=O)(c1ccc(Cl)s1)N1CCSc2c(-c3cc4cc(Cl)ccc4o3)cncc21` [S60, 8-(5-Chlorobenzofuran-2-yl)-4-((5-chlorothiophen-2-yl)sulfonyl)-3,4-dihydro-2H-pyrido-[4,3-b][1,4]thiazine], in that order: 0.054 µM and 0.0007 µM.
On the same counts, the results for `O=S(=O)(C1CCNCC1)N1CCSc2c(-c3cc4cc(Cl)ccc4o3)cncc21` [S61, 8-(5-Chlorobenzofuran-2-yl)-4-(piperidin-4-ylsulfonyl)-3,4-dihydro-2H-pyrido[4,3-b][1, 4]thiazine] are 0.688 µM and 0.0217 µM.
On to `O=S(=O)(C1CNC1)N1CCSc2c(-c3cc4cc(Cl)ccc4o3)cncc21` [S62, 4-(Azetidin-3-ylsulfonyl)-8-(5-chlorobenzofuran-2-yl)-3,4-dihydro-2H-pyrido[4,3-b][1,4]thiazine], for which the half-inhibitory concentration (IC50) turned out to be 0.516 µM against human CYP11B1 and 0.0072 µM on human CYP11B2.
On the same counts, the results for `N#CN1CCC(S(=O)(=O)N2CCSc3c(-c4cc5cc(Cl)ccc5o4)cncc32)CC1` [S63, 4-((8-(5-Chlorobenzofuran-2-yl)-2,3-dihydro-4H-pyrido[4,3-b][1,4]thiazin-4-yl)sulfonyl) piperidine-1-carbonitrile] are 0.792 µM and 0.01 µM.
On the same counts, the results for `N#CN1CC(S(=O)(=O)N2CCSc3c(-c4cc5cc(Cl)ccc5o4)cncc32)C1` [S64, 3-((8-(5-Chlorobenzofuran-2-yl)-2,3-dihydro-4H-pyrido[4,3-b][1,4]thiazin-4-yl)sulfonyl) azetidine-1-carbonitrile] are 0.755 µM and 0.0045 µM.
On the same counts, the results for `N#CC12CC(S(=O)(=O)N3CCSc4c(-c5cc6cc(Cl)ccc6o5)cncc43)(C1)C2` [S65, 3-((8-(5-Chlorobenzofuran-2-yl)-2,3-dihydro-4H-pyrido[4,3-b][1,4]thiazin-4-yl)sulfonyl)bicyclo[1.1.1]pentane-1-carbonitrile] are 0.783 µM and 0.005 µM.
On to `O=S(=O)(C1CC2(COC2)C1)N1CCSc2c(-c3cc4cc(Cl)ccc4o3)cncc21` [S66, 4-((2-Oxaspiro[3.3]heptan-6-yl)sulfonyl)-8-(5-chlorobenzofuran-2-yl)-3,4-dihydro-2H-pyrido[4,3-b][1,4]thiazine], for which the IC50 worked out at 0.587 µM at human CYP11B1 and 0.0038 µM on human CYP11B2.
On the same counts, the results for `N#CN1CC2(CC(S(=O)(=O)N3CCSc4c(-c5cc6cc(Cl)ccc6o5)cncc43)C2)C1` [S67, 6-((8-(5-chlorobenzofuran-2-yl)-2,3-dihydro-4H-pyrido[4,3-b][1,4]thiazin-4-yl)sulfonyl)-2-azaspiro[3.3]heptane-2-carbonitrile] are 0.603 µM and 0.0032 µM.
For `N#Cc1ccc(-c2cncc3c2SCCN3S(=O)(=O)C2CN(C(=O)c3ccc(F)cc3)C2)cc1` [S68, 4-(4-((1-(4-Fluorobenzoyl)azetidin-3-yl)sulfonyl)-3,4-dihydro-2H-pyrido[4,3-b][1,4]thiazin-8-yl)benzonitrile], in that order: 0.022 µM and 0.0008 µM.
On the same counts, the results for `N#Cc1ccc(-c2cncc3c2SCCN3S(=O)(=O)C2CN(C(=O)c3cccc(F)c3)C2)cc1` [S69, 4-(4-((1-(3-Fluorobenzoyl)azetidin-3-yl)sulfonyl)-3,4-dihydro-2H-pyrido[4,3-b][1,4]thiazin-8-yl)benzonitrile] are 0.073 µM and 0.0013 µM.
As for `N#Cc1ccc(C(=O)N2CC(S(=O)(=O)N3CCSc4c(-c5ccc(C#N)cc5)cncc43)C2)cc1` [S70, 4-(4-((1-(4-Cyanobenzoyl)azetidin-3-yl)sulfonyl)-3,4-dihydro-2H-pyrido[4,3-b][1,4]thiazin-8-yl)benzonitrile], the IC50 on human CYP11B1 worked out at 0.049 µM; against human CYP11B2, 0.0014 µM.
On the same counts, the results for `N#Cc1ccc(-c2cncc3c2SCCN3S(=O)(=O)C2CN(C(=O)c3cccc(C#N)c3)C2)cc1` [S71, 3-(3-((8-(4-Cyanophenyl)-2,3-dihydro-4H-pyrido[4,3-b][1,4]thiazin-4-yl)sulfonyl)azetidine-1-carbonyl)benzonitrile] are 0.349 µM and 0.014 µM.
For `COc1ccc(C(=O)N2CC(S(=O)(=O)N3CCSc4c(-c5ccc(C#N)cc5)cncc43)C2)cc1` [S72, 4-(4-((1-(4-Methoxybenzoyl)azetidin-3-yl)sulfonyl)-3,4-dihydro-2H-pyrido[4,3-b][1,4]thiazin-8-yl)benzonitrile], in that order: 0.023 µM and 0.0021 µM.
For `COc1cccc(C(=O)N2CC(S(=O)(=O)N3CCSc4c(-c5ccc(C#N)cc5)cncc43)C2)c1` [S73, 4-(4-((1-(3-Methoxybenzoyl)azetidin-3-yl)sulfonyl)-3,4-dihydro-2H-pyrido[4,3-b][1,4]thiazin-8-yl)benzonitrile], in that order: 0.018 µM and 0.0003 µM.
As to `N#Cc1ccc(-c2cncc3c2SCCN3S(=O)(=O)C2CN(S(=O)(=O)c3ccc(F)cc3)C2)cc1` [S74, 4-(4-((1-((4-Fluorophenyl)sulfonyl)azetidin-3-yl)sulfonyl)-3,4-dihydro-2H-pyrido[4,3-b][1,4]thiazin-8-yl)benzonitrile], the IC50 was 0.022 µM against human CYP11B1 and 0.0017 µM against human CYP11B2.

The record behind these values is patent publication US20260092074A1, “Annelated Pyridines as Steroidogenesis Inhibitors, Preparation Method and Use Thereof” (Guangzhou Vinnocent Pharmaceutical Limited, priority 2022, published 2026).
